In US20070293514A1, “Triazolopyrimidines” (priority 2003, published 2007):

assay: logP by HPLC (EEC Directive 79/831 Annex V. A8, gradient method); format: physicochemical; details: acetonitrile/0.1% aqueous phosphoric acid

Compound	chromatographic logP	logP
CC(C)c1nc2nc(Cl)c(-c3cc(F)ccc3F)c(NC(C)[Si](C)(C)C)n2n1 (stereo not drawn) [Example 15]	4.58	
Cc1nc2nc(Cl)c(-c3cc(F)ccc3F)c(NC[Si](C)(C)C)n2n1 [Example 18]	3.4	
CCC(C)c1c(Cl)nc2ncnn2c1NC[Si](C)(C)C (stereo not drawn) [Example 26, 5-chloro-6-sec-butyl-7-trimethylsilylmethylamino[1,2,4]triazolo[1,5-a]pyrimidine]	3.34	
CC(Nc1c(-c2ncncc2F)c(Cl)nc2ncnn12)[Si](C)(C)C (stereo not drawn) [Example 42]		2.57
CC(Nc1c(-c2ncncc2Cl)c(Cl)nc2ncnn12)[Si](C)(C)C (stereo not drawn) [Example 23]		2.70
CC(Nc1c(-c2ncncc2F)c(Cl)nc2nc(C3CC3)nn12)[Si](C)(C)C (stereo not drawn) [Example 19]		2.99
C[Si](C)(C)CNc1c(-c2c(F)cc(F)cc2F)c(Cl)nc2ncnn12 [Example 4]	3.39	
CC(C)c1nc2nc(Cl)c(-c3cc(F)ccc3F)c(NC[Si](C)(C)C)n2n1 [Example 16]	4.21	
CC(Nc1c(-c2c(F)cccc2Cl)c(Cl)nc2nc(C3CC3)nn12)[Si](C)(C)C (stereo not drawn) [Example 11]		4.65
C[Si](C)(C)CNc1c(-c2ccccc2Cl)c(Cl)nc2nc(C3CC3)nn12 [Example 20]		4.23
CC(C)c1nc2nc(Cl)c(-c3ncncc3F)c(NC(C)[Si](C)(C)C)n2n1 (stereo not drawn) [Example 9]		3.61
CCC(C)c1c(O)n2ncnc2[nH]c1=O (stereo not drawn) [6-sec-butyl-7-hydroxy[1,2,4]triazolo[1,5-a]pyrimidin-5(4H)-one]	0.7	
C[Si](C)(C)CNc1c(-c2ncncc2F)c(Cl)nc2ncnn12 [Example 41]		2.28
CCC(C)c1c(Cl)nc2ncnn2c1Cl (stereo not drawn) [5,7-dichloro-6-sec-butyl[1,2,4]triazolo[1,5-a]pyrimidine]	2.4	
C[Si](C)(C)CNc1c(-c2ccc(F)cc2Cl)c(Cl)nc2ncnn12 [Example 1]	3.61	
CC(Nc1c(-c2ccccc2Cl)c(Cl)nc2ncnn12)[Si](C)(C)C (stereo not drawn) [Example 7]		3.83
Cc1nc2nc(Cl)c(-c3cc(F)ccc3F)c(NC(C)[Si](C)(C)C)n2n1 (stereo not drawn) [Example 17]	3.73	

Compound	chromatographic logP	logP
CC(Nc1c(-c2ccccc2Cl)c(Cl)nc2nc(C3CC3)nn12)[Si](C)(C)C (stereo not drawn) [Example 21]		4.66
CC(C)c1nc2nc(Cl)c(-c3ncc(C(F)(F)F)cc3Cl)c(NC[Si](C)(C)C)n2n1 [Example 8]		4.51
CC(Nc1c(-c2ccc(F)cc2Cl)c(Cl)nc2ncnn12)[Si](C)(C)C (stereo not drawn) [Example 6]		3.95
C[Si](C)(C)CNc1c(-c2c(F)cccc2Cl)c(Cl)nc2nc(C3CC3)nn12 [Example 12]		4.22
CC(Nc1c(-c2ncccc2C(F)(F)F)c(Cl)nc2ncnn12)[Si](C)(C)C (stereo not drawn) [Example 10]		3.06
Cc1nc2nc(Cl)c(-c3ncncc3F)c(NC(C)[Si](C)(C)C)n2n1 (stereo not drawn) [Example 28]		2.73
CC(Nc1c(-c2c(F)cc(F)cc2F)c(Cl)nc2ncnn12)[Si](C)(C)C (stereo not drawn) [Example 2]	3.71	
CC(Nc1c(-c2cc(F)ccc2F)c(Cl)nc2nc(C3CC3)nn12)[Si](C)(C)C (stereo not drawn) [Example 14]	4.35	
C[Si](C)(C)CNc1c(-c2c(F)cccc2Cl)c(Cl)nc2ncnn12 [Example 3]		3.43
C[Si](C)(C)CNc1c(-c2ncncc2F)c(Cl)nc2nc(C3CC3)nn12 [Example 22]		3.02
CC(Nc1c(-c2cc(F)ccc2F)c(Cl)nc2ncnn12)[Si](C)(C)C (stereo not drawn) [Example 40]	3.57	
CC(Nc1c(-c2c(F)cccc2Cl)c(Cl)nc2ncnn12)[Si](C)(C)C (stereo not drawn) [Example 5]		3.79
Cc1nc2nc(Cl)c(-c3ncncc3F)c(NC[Si](C)(C)C)n2n1 [Example 27]		2.43
C[Si](C)(C)CNc1c(-c2cc(F)ccc2F)c(Cl)nc2ncnn12 [Example 39]	3.26	
C[Si](C)(C)CNc1c(-c2cc(F)ccc2F)c(Cl)nc2nc(C3CC3)nn12 [Example 13]	3.99	
C[Si](C)(C)CNc1c(-c2ncncc2Cl)c(Cl)nc2ncnn12 [Example 24]		2.44
